From US10781224B2, “Bis(oxymethyl)phosphinic acid and biogenic metal salts thereof as regulators of plant growth and development” (priority 2016, dated 2020)

Tests used:
[1] = system: winter wheat (Vershin variety); assay: Winter wheat seed treatment with BHMPA salts: germination energy and germination rate; type: in vivo
Outline: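 Corn, winter wheat and rice seeds (50 per dish, on filter paper) were soaked for 1 h in BHMPA or its metal salts at 1·10^−6-1·10^−12%, with water as control. Germination energy was read on day 4 and germination rate on day 8 for wheat and day 7 for rice and corn, following GOST 12038-84, as the mean of four replicates.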

[2] = system: rice (Diamant variety); assay: Rice seed treatment with BHMPA salts: germinating power; type: in vivo; details: for Length, root / Length, root, + % to control / Length, sprout / Length, sprout, + % to control / Mass, dry, root / Mass, dry, root, + % to control / Mass, dry, sprout / Mass, dry, sprout, + % to control / Mass, wet, root / Mass, wet, root, + % to control / Mass, wet, sprout / Mass, wet, sprout, + % to control: rice seed treatment
Outline: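 Seeds (50 per Petri dish on two layers of filter paper) soaked 1 h in BHMPA or its Ca, Mg, Na, Co, Mn, Cu or Zn salts at 1·10^−6-1·10^−12%, with water controls. Germination energy read on day 4, germination on day 8 (wheat) or day 7 (rice, corn), as % means of four replicates. Germinating power taken as root and sprout length plus wet and dry mass per 100 seedlings.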

[3] = winter wheat Vershin, 1·10^−6% solution
[4] = winter wheat Vershin, 1·10^−7% solution
[5] = winter wheat Vershin, 1·10^−8% solution
[6] = winter wheat Vershin, 1·10^−9% solution
[7] = winter wheat Vershin, 1·10^−10% solution
[8] = winter wheat Vershin, 1·10^−11% solution
[9] = winter wheat Vershin, 1·10^−12% solution
[10] = winter wheat, comparative study vs Melaphen, 1·10^−9% solution
[11] = comparison with Melaphen (Table XXXIII), solution 1 · 10^−9%
[12] = experimental solution 1 · 10^−6%
[13] = experimental solution 1 · 10^−7%
[14] = experimental solution 1 · 10^−8%
[15] = experimental solution 1 · 10^−9%
[16] = experimental solution 1 · 10^−10%
[17] = experimental solution 1 · 10^−11%
[18] = experimental solution 1 · 10^−12%
[19] = rice, vs control, 1·10^−9% solution

O=P([O-])(CO)CO.O=P([O-])(CO)CO.[Zn+2] [Zn-salt, Zinc BHMPA Salt]
Germination energy [1, 3]: 91.9%
Germination rate [1, 3]: 95.3%
Germination energy [1, 4]: 92.7%
Germination rate [1, 4]: 96.0%
Germination energy [1, 5]: 94.1%
Germination rate [1, 5]: 97.3%
Germination energy [1, 6]: 96.1%
Germination rate [1, 6]: 98.3%
Germination energy [1, 7]: 95.4%
Germination rate [1, 7]: 97.3%
Germination energy [1, 8]: 93.2%
Germination rate [1, 8]: 96.0%
Germination energy [1, 9]: 92.3%
Germination rate [1, 9]: 96.0%
Germination energy [1, 10]: 94.0%
Germination rate [1, 10]: 97.3%
optimum concentration for treating rice seeds before sowing ([2]; rice): 1·10^−9%
Length, root [2, 11]: 7.5 cm
Length, root, + % to control [2, 11]: 56%
Length, sprout [2, 11]: 4.8 cm
Length, sprout, + % to control [2, 11]: 48%
Mass, dry, root [2, 11]: 0.28 g/100 plantlings
Mass, dry, root, + % to control [2, 11]: 33%
Mass, dry, sprout [2, 11]: 0.32 g/100 plantlings
Mass, dry, sprout, + % to control [2, 11]: 28%
Mass, wet, root [2, 11]: 1.54 g/100 plantlings
Mass, wet, root, + % to control [2, 11]: 57%
Mass, wet, sprout [2, 11]: 2.57 g/100 plantlings
Mass, wet, sprout, + % to control [2, 11]: 70%
Length, root [2, 12]: 6.2 cm
Length, root, + % to control [2, 12]: 15%
Length, sprout [2, 12]: 2.6 cm
Length, sprout, + % to control [2, 12]: 8%
Mass, dry, root [2, 12]: 0.19 g/100 plantlings
Mass, dry, root, + % to control [2, 12]: 12%
Mass, dry, sprout [2, 12]: 0.23 g/100 plantlings
Mass, dry, sprout, + % to control [2, 12]: 4.5%
Mass, wet, root [2, 12]: 1.04 g/100 plantlings
Mass, wet, root, + % to control [2, 12]: 24%
Mass, wet, sprout [2, 12]: 1.81 g/100 plantlings
Mass, wet, sprout, + % to control [2, 12]: 24%
Length, root [2, 13]: 6.6 cm
Length, root, + % to control [2, 13]: 22%
Length, sprout [2, 13]: 2.8 cm
Length, sprout, + % to control [2, 13]: 17%
Mass, dry, root [2, 13]: 0.22 g/100 plantlings
Mass, dry, root, + % to control [2, 13]: 29%
Mass, dry, sprout [2, 13]: 0.27 g/100 plantlings
Mass, dry, sprout, + % to control [2, 13]: 23%
Mass, wet, root [2, 13]: 1.21 g/100 plantlings
Mass, wet, root, + % to control [2, 13]: 44%
Mass, wet, sprout [2, 13]: 2.10 g/100 plantlings
Mass, wet, sprout, + % to control [2, 13]: 44%
Length, root [2, 14]: 6.8 cm
Length, root, + % to control [2, 14]: 26%
Length, sprout [2, 14]: 3.1 cm
Length, sprout, + % to control [2, 14]: 29%
Mass, dry, root [2, 14]: 0.24 g/100 plantlings
Mass, dry, root, + % to control [2, 14]: 41%
Mass, dry, sprout [2, 14]: 0.28 g/100 plantlings
Mass, dry, sprout, + % to control [2, 14]: 27%
Mass, wet, root [2, 14]: 1.29 g/100 plantlings
Mass, wet, root, + % to control [2, 14]: 53.5%
Mass, wet, sprout [2, 14]: 2.27 g/100 plantlings
Mass, wet, sprout, + % to control [2, 14]: 55%
Length, root [2, 15]: 7.0 cm
Length, root, + % to control [2, 15]: 30%
Length, sprout [2, 15]: 3.6 cm
Length, sprout, + % to control [2, 15]: 50%
Mass, dry, root [2, 15]: 0.27 g/100 plantlings
Mass, dry, root, + % to control [2, 15]: 59%
Mass, dry, sprout [2, 15]: 0.33 g/100 plantlings
Mass, dry, sprout, + % to control [2, 15]: 50%
Mass, wet, root [2, 15]: 1.32 g/100 plantlings
Mass, wet, root, + % to control [2, 15]: 57%
Mass, wet, sprout [2, 15]: 2.31 g/100 plantlings
Mass, wet, sprout, + % to control [2, 15]: 58%
Length, root [2, 16]: 6.9 cm
Length, root, + % to control [2, 16]: 28%
Length, sprout [2, 16]: 3.2 cm
Length, sprout, + % to control [2, 16]: 33%
Mass, dry, root [2, 16]: 0.25 g/100 plantlings
Mass, dry, root, + % to control [2, 16]: 47%
Mass, dry, sprout [2, 16]: 0.31 g/100 plantlings
Mass, dry, sprout, + % to control [2, 16]: 41%
Mass, wet, root [2, 16]: 1.26 g/100 plantlings
Mass, wet, root, + % to control [2, 16]: 50%
Mass, wet, sprout [2, 16]: 2.17 g/100 plantlings
Mass, wet, sprout, + % to control [2, 16]: 49%
Length, root [2, 17]: 6.7 cm
Length, root, + % to control [2, 17]: 24%
Length, sprout [2, 17]: 2.8 cm
Length, sprout, + % to control [2, 17]: 17%
Mass, dry, root [2, 17]: 0.22 g/100 plantlings
Mass, dry, root, + % to control [2, 17]: 29%
Mass, dry, sprout [2, 17]: 0.29 g/100 plantlings
Mass, dry, sprout, + % to control [2, 17]: 32%
Mass, wet, root [2, 17]: 1.19 g/100 plantlings
Mass, wet, root, + % to control [2, 17]: 42%
Mass, wet, sprout [2, 17]: 2.09 g/100 plantlings
Mass, wet, sprout, + % to control [2, 17]: 43%
Length, root [2, 18]: 5.9 cm
Length, root, + % to control [2, 18]: 9%
Length, sprout [2, 18]: 2.7 cm
Length, sprout, + % to control [2, 18]: 12.5%
Mass, dry, root [2, 18]: 0.19 g/100 plantlings
Mass, dry, root, + % to control [2, 18]: 12%
Mass, dry, sprout [2, 18]: 0.25 g/100 plantlings
Mass, dry, sprout, + % to control [2, 18]: 14%
Mass, wet, root [2, 18]: 1.05 g/100 plantlings
Mass, wet, root, + % to control [2, 18]: 25%
Mass, wet, sprout [2, 18]: 1.70 g/100 plantlings
Mass, wet, sprout, + % to control [2, 18]: 16%
dry mass of the roots increased by [2, 19]: 59%
dry mass of the sprouts increased by [2, 19]: 50%
length of the root increased by [2, 19]: 30%
length of the sprout increased by [2, 19]: 50%
wet mass of the roots increased by [2, 19]: 57%
wet mass of the sprouts increased by [2, 19]: 58%
